# Reference: patent publication US11925733B2, “Malodor counteractant composition and methods” (Bell Flavors & Fragrances, Inc., priority 2016, dated 2024)
# Test: Gas chromatographic headspace measurement of fragrance compounds with and without zinc ricinoleate
# Format: physicochemical
# Details: 100 ng of each fragrance chemical on a film of 0.5 g zinc ricinoleate; FIG. 4
# Text: The effect of zinc ricinoleate [Zn(Ri)2] on the partitioning of compounds into the headspace. Headspace analysis is a sampling technique in which a nonvolatile matrix (liquid or solid) is heated and volatiles are collected as they partition (migrate) into the unfilled volume of the vial (headspace). These compounds are concentrated on an adsorbent tube then injected into the chromatograph where individual compounds are separated.
# A sample of volatile compounds are placed into a vial, sealed, and heated for a period of time. The volatile compounds will migrate into the gas headspace. The more volatile the compound, the more concentrated it will be in the headspace. Conversely, the less volatile components will partition into the headspace to a lesser extent thus separating components of interest from the nonvolatile sample matrix (diaper).
# For each test compound, 1 microliter of a 100 nanogram/microliter (ng/μl) solution (100 ng of each fragrance chemical) is put into a vial, warmed, purged, and volatiles concentrated in an adsorbent cartridge. The cartridge is desorbed into the GC where individual compounds are separated. A second set of each of the fragrance chemicals is prepared and added to a vial where 0.5 g zinc ricinoleate has been added. […]
substance,measurement,value
zinc ricinoleate,effect on headspace volatility of fragrance chemicals,reduction of volatility
